# Publication PMC10178127, “Immunomodulatory Effects of the Pea Defensin Psd1 in the Caco-2/Immune Cells Co-Culture upon Candida albicans Infection” (International Journal of Molecular Sciences, 2023)
# Key:
# [1] = tested on: polarized Caco-2 monolayer; assay: Real-time PCR of HBD-2, IL-1β, IL-8/CXCL8 genes in Caco-2 cells; type: cell-based, human
# Description: Caco-2 cells were seeded into the wells of 24-well plates in the complete RPMI-1640 medium containing 10% FBS and 1X antibiotic-antimycotic solution and kept in a humidified CO2-incubator (5% CO2, 37 °C). Cells were grown for 18 days and the medium was changed twice a week. The presence of a cell monolayer was checked using an inverted microscope and the plates were incubated one more week for complete polarization of Caco-2 cells. Caco-2 cells were stimulated by adding fresh complete RPMI-1640 medium without antibiotics, containing Psd1 at the final concentration of 2 µM or Candida albicans at the concentration of 5 × 10^4 cells/mL (1.3 × 10^4 cells per cm^2 of Caco-2 monolayer) or yeast cells together with the pea defensin at the same concentration. RPMI-1640 medium only was used in control wells.
# Total RNA was isolated from Caco-2 cells using TRIzol reagent (Invitrogen) according to the manufacturer’s instructions after 4 or 24 h of stimulation and cell washing by RPMI-1640 medium. The quality and quantity of total RNA were determined by the A260/280 ratio using NanoPhotometer NP80 (Implen GmbH, München, Germany) as well as agarose gel electrophoresis (Supporting Materials, Figure S3). RNase inhibitor (Evrogen, Moscow, Russia) was added to the final preparation of total RNA. Two μg of total RNA was taken to synthesize the cDNA using MINT-Universal cDNA synthesis kit (Evrogen, Moscow, Russia) containing MMLV-based reverse transcriptase following the manufacturer’s instructions.
# Real-time PCR was performed on CFX Opus 96 Real-Time PCR System (Bio-Rad, Hercules, CA, USA) using the SYBR Green PCR kit (Evrogen, Moscow, Russia) and target-specific primers (Supporting Materials, Table S4). The internal control housekeeping gene GAPDH was amplified simultaneously in separate reaction tubes [36]. The reaction conditions were set as follows: initial heating at 95 °C for 3 min, followed by 50 cycles of reactions at 95 °C (15 s), followed by 62 °C (20 s), and finally 72 °C (30 s). Melt curves were obtained using a temperature increment from 50 to 95 °C at 0.5 °C/5 s (Supporting Materials, Figure S4). The threshold cycle number (CT) of reactions was determined using the CFX Maestro 2.2 (version 5.2.008.0222) software (Bio-Rad, Hercules, CA, USA). The efficiency of PCR was monitored by using LinRegPCR online tool (https://www.gear-genomics.com/rdml-tools/). The relative expression of the genes of interest was calculated by normalization to GAPDH using the standard 2^−ΔΔCT method. Unstimulated Caco-2 cells after 4 and 24 h of incubation were used as controls. Experiments were performed twice in six technical replications. Gene expression in controls and experimental samples was compared with a t-test using GraphPad Prism v.8.0.1. The p-values ≤ 0.05 were considered significant.
# [2] = tested on: human peripheral blood mononuclear cells (PBMCs); assay: Resazurin-based cell cytotoxicity assay; details: 24 h
# Description: The cytotoxic properties of the pea defensin Psd1 were investigated by resazurin-based cell cytotoxicity assay as previously described. In brief, PBMCs were seeded in 96-well plates at 2 × 10^6 cells per well in RPMI-1640 supplemented with 10% FBS and kept in a CO2 incubator for 24 h. After this, serial two-fold dilutions of defensin in a complete culture medium were added to the wells at final concentrations from 0.2 to 50 μM and the plates were incubated for 24 h. Resazurin (Sigma) was added at a final concentration of 70 µM, and the plates were incubated overnight (16–18 h). Fluorescent resorufin was registered using a 535/595 filter at PlateReader AF2200 (Eppendorf). Untreated cells were used as negative controls. Non-ionogenic detergent Triton X-100 and membrane-active peptide melittin from honeybee venom were used as positive controls. The cell viability was calculated according to the following equation: cell viability (%) = (Fsample/Fcontrol) × 100%. Cell lysis was monitored with an Olympus CKX41 microscope.
substance,measurement,setting,value
"Psd1: pea defensin from Pisum sativum (UNIPROT P81929), recombinant peptide overexpressed in Escherichia coli (KTCEHLADTYRGVCFTNASCDDHCKNKAHLISGTCHNWKCFCTQNC; UniProt P81929 1-46, looked up)","expression of HBD-2, IL-1β and IL-8/CXCL8 genes","[1]; 2 μM Psd1, 24 h",Immunostimulatory action of Psd1 was observable
same,"expression of HBD-2, IL-1β and IL-8/CXCL8 genes","[1]; 2 μM Psd1 alone, 4 h, relative to untreated Caco-2",upregulated all three genes
same,"expression of HBD-2, IL-1β and IL-8/CXCL8 genes","[1]; 2 μM Psd1 with C. albicans vs C. albicans alone, 24 h, p < 0.05",significantly reduced the inhibitory effect of pathogenic fungus
same,"expression of HBD-2, IL-1β and IL-8/CXCL8 genes","[1]; 2 μM Psd1 with C. albicans, 4 h",more pronounced activation of the protective immune response
same,cytotoxic activity on PBMCs,[2]; 0.2 to 50 μM,no cytotoxic activity
same,Cell viability,"[2]; PBMCs, 50 μM",100%
